Laboratory results taken from patent EP2676962A1, “Derivatives of 1-aminoalkylphosphonate diaryl esters, method of 1-aminoalkylphosphonate diaryl ester derivatives preparation and their application” (priority 2012, dated 2013).
Where two headings read alike, the source gives them in different places.

Columns and labels:
Format in all cases: biochemical
[1] = target: subtilisin (Sub) (Bacillus licheniformis, UniProt P00780); experiment: Inhibitory activity toward subtilisin, fluorogenic substrate, microplate reader; details: for Sub Kobs/[I]: 10 min pre-incubation at 37°C, pH 7,5, Me-Suc-Ala-Ala-Pro-Phe-AMC 5µM, NI = brak inhibicji (no inhibition)
subtilisin (Sub), sequence (P00780 106-379): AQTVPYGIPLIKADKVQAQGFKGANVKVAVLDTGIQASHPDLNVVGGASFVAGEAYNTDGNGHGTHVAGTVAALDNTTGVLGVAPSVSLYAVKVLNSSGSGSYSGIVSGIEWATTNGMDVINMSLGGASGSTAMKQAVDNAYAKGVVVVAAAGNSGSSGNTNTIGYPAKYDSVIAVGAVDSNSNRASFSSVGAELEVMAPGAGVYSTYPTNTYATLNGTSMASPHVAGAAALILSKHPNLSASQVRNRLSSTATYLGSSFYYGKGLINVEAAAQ
Method: (§1) The biological activity of peptidyl derivatives of phosphonic analogs of valine, alanine, phenylalanine, 4-guanidinephenylglycine, leucine, and 1-aminobutyric acid, containing the N-terminal biotin residue were tested for their ability to inhibit proteolytic activity of selected serine proteases, and the control cysteine proteases. All tests were performed using a microplate reader. As enzyme substrates fluorescent peptides were used. The method to measure the activity of the compounds obtained are described below for each of the enzymes tested: human neutrophil elastase (HNE), porcine pancreatic elastase (PPE), subtilisin (Sub), cathepsin G (CatG), proteinase 3 (PR3), chymotrypsin (ChTry) trypsin (Try), papain (Pap) and cathepsin L (CatL). Measurement of the inhibitory activity was performed at different inhibitor concentrations ranging from 12.5 nM to 2000nm.
Measurement of inhibitory activity of compounds toward subtilisin (Sub).
(§2) The inhibitory activity assay is performed at 37°C in 0,05M Tris-HCl, 1M NaCl, 0,01% Triton X-100 buffer, pH 7,5, within 10 min after initial pre-incubation of the enzyme with inhibitor tested at 37°C for 10 min. The enzyme concentration is 5nM. Substrate used Me-Suc-Ala-Ala-Pro-Phe-AMC at 5µM. Measurement is taken at an excitation wavelength of 350nm and 460nm emission.
(§3) The IC50 value is the concentration of inhibitor required to inhibit half of the enzyme activity after 10 minutes incubation.

[2] = target: T1, proteinase 3 (PR3) (Homo sapiens, UniProt P24158); experiment: Inhibitory activity toward proteinase 3, fluorogenic substrate, microplate reader
T1 sequence (P24158 28-248): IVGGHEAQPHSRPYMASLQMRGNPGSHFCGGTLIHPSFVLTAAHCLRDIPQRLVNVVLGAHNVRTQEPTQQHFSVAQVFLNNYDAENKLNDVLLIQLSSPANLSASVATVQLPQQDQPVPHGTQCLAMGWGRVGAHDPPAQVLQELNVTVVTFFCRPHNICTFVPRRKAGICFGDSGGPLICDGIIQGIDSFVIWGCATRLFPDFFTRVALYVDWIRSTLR
Method: as §1
Measurement of inhibitory activity of compounds toward proteinase 3(PR3).
(§4) The inhibitory activity assay is performed at 37°C in 0,1M Tric-HCl, 0,5M NaCl buffer, pH 7,5, within 10 min after initial pre-incubation of the enzyme with inhibitor tested at 37°C for 10 min. The enzyme concentration is 17nM. Substrate used Abz-Tyr-Tyr-Abu-Anb-NH2 at 30µM. Measurement is taken at an excitation wavelength of 325nm and 400nm emission.
as §3

[3] = target: T2, cathepsin G (CatG) (Homo sapiens, UniProt P08311); experiment: Inhibitory activity toward cathepsin G, fluorogenic substrate, microplate reader
T2 sequence (P08311 21-244): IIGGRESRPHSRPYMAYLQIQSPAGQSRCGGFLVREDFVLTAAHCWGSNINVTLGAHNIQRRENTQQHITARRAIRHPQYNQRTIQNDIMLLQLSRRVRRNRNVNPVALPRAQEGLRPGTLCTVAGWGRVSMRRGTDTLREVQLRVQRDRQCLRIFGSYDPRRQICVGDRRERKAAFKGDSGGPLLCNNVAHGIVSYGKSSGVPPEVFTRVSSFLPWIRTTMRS
Method: as §1
Measurement of inhibitory activity of compounds toward cathepsin G (CatG).
as §4, with “100nM.” for “17nM.”, “MCA-Phe-Val-Thr-Gnf-Ser-Trp-Anb-NH2” for “Abz-Tyr-Tyr-Abu-Anb-NH2”, “2.5µM.” for “30µM.”
as §3

[4] = target: porcine pancreatic elastase (PPE) (Sus scrofa, UniProt P00772); experiment: Inhibitory activity toward porcine pancreatic elastase, fluorogenic substrate, microplate reader
porcine pancreatic elastase (PPE), sequence (P00772 27-266): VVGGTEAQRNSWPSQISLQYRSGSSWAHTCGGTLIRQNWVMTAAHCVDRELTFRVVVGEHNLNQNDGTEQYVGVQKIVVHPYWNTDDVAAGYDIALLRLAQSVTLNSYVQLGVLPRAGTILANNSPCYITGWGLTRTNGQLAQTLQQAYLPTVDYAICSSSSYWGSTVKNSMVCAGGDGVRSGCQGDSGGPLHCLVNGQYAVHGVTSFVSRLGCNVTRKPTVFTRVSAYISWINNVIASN
Method: as §1
Measurement of inhibitory activity of compounds toward porcine pancreatic elastase (PPE).
as §2, with “0,01M” for “0,05M”, “0,05%” for “1M NaCl, 0,01%”, “8,5,” for “7,5,”, “60nM.” for “5nM.”, “Me-Suc-Ala-Ala-Pro-Val-AMC” for “Me-Suc-Ala-Ala-Pro-Phe-AMC”, “100µM.” for “5µM.”
as §3

[5] = target: T3, human neutrophil elastase (HNE) (Homo sapiens, UniProt P08246); experiment: Inhibitory activity toward human neutrophil elastase, fluorogenic substrate, microplate reader
T3 sequence (P08246 30-267): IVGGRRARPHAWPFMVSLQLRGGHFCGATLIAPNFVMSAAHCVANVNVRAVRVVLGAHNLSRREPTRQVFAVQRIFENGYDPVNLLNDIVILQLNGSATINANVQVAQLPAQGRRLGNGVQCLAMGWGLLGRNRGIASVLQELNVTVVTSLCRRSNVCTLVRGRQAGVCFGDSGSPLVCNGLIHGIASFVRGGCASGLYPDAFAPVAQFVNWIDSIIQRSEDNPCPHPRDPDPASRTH
Method: as §1
Measurement of inhibitory activity of compounds toward human neutrophil elastase (HNE).
The inhibitory activity assay is performed at 37°C in 0,01M HEPES, 0,5M NaCl, 0,03% Triton X-100 buffer, pH 7,5, within 10 min after initial pre-incubation of the enzyme with inhibitor tested at 37°C for 10 min. The enzyme concentration is 0,0025U/ml. Substrate used Me-Suc-Ala-Ala-Pro-Val-AFC at 25µM. Measurement is taken at an excitation wavelength of 400nm and 505nm emission.
as §3

[6] = target: chymotrypsin (ChTry) (Bos taurus, UniProt P00766); experiment: Inhibitory activity toward chymotrypsin, fluorogenic substrate, microplate reader; details: 10 min pre-incubation at 37°C, pH 7,5, Suc-Ala-Ala-Pro-Phe-AMC 5µM; NI = brak inhibicji (no inhibition)
Method: as §1
Measurement of inhibitory activity of compounds toward […] (ChyTry).
as §4, with “HEPES,” for “Tric-HCl,”, “3nM.” for “17nM.”, “Suc-Ala-Ala-Pro-Phe-AMC” for “Abz-Tyr-Tyr-Abu-Anb-NH2”, “5µM.” for “30µM.”, “350nm” for “325nm”, “460nm” for “400nm”
as §3

[7] = read-out: Cat G IC50, 10 min pre-incubation at 37°C, pH 7,5, MCA-Phe-Val-Thr-Gnf-Ser-Trp-Anb-NH2 2.5µM, NI = brak inhibicji (no inhibition)
[8] = 10 min pre-incubation at 37°C, pH 8,5, Me-Suc-Ala-Ala-Pro-Val-AMC 100µM, NI = brak inhibicji (no inhibition)
[9] = 10 min pre-incubation at 37°C, pH 7,5, Me-Suc-Ala-Ala-Pro-Val-AFC 25µM, NI = brak inhibicji (no inhibition)
[10] = read-out: PR3 IC50, 10 min pre-incubation at 37°C, pH 7,5, Abz-Tyr-Tyr-Abu-Anb-NH2 30µM, NI = brak inhibicji (no inhibition)
[11] = 10 min pre-incubation at 37°C, pH 7,5, MCA-Phe-Val-Thr-Gnf-Ser-Trp-Anb-NH2 2.5µM, NI = brak inhibicji (no inhibition)
[12] = read-out: PPE IC50, 10 min pre-incubation at 37°C, pH 8,5, Me-Suc-Ala-Ala-Pro-Val-AMC 100µM, NI = brak inhibicji (no inhibition)
[13] = read-out: HNE IC50, 10 min pre-incubation at 37°C, pH 7,5, Me-Suc-Ala-Ala-Pro-Val-AFC 25µM, NI = brak inhibicji (no inhibition)

| SMILES | IC50 [1] | Sub Kobs/[I] [1] | IC50 [2] | PR3 Kobs/[I] ([2]; 10 min pre-incubation at 37°C, pH 7,5, Abz-Tyr-Tyr-Abu-Anb-NH2 30µM, NI = brak inhibicji (no inhibition)) | IC50 [3, 7] | IC50 [4] | PPE Kobs/[I] [4, 8] | IC50 [5] | HNE Kobs/[I] [5, 9] | IC50 [2, 10] | IC50 [3] | Cat G Kobs/[I] [3, 11] | IC50 [4, 12] | IC50 [5, 13] | ChyTr Kobs/[I] [6] |
| --- | --- | --- | --- | --- | --- | --- | --- | --- | --- | --- | --- | --- | --- | --- | --- |
| CC(C)C(NC(=O)CCCCC1SCC2NC(=O)NC21)C(=O)N1CCCC1C(=O)NC(C(C)C)P(=O)(Oc1ccccc1)Oc1ccccc1 (centres unmarked) [Compound 2, diphenyl 2-methyl-1-(1-(3-methyl-2-(5-(2-oxohexahydro-1H-thieno[3,4-d]imidazol-4-yl)pentanamido)butanoyl)pyrrolidine-2-carboxamido)propylphosphonate] | 415 ± 17 nM | 2.8*10^3 M^-1S^-1 | 0.728 ± 0.044 µM | 3.2*10^3 M^-1S^-1 | > 5000 nM | 246 ± 30.5 nM | 4.7*10^3 M^-1S^-1 | 6.5 ± 0.3 nM | 1.8*10^5 M^-1S^-1 |  |  |  |  |  |  |
| CC(C)C(NC(=O)CCCCC1SCC2NC(=O)NC21)C(=O)N1CCCC1C(=O)NC(Cc1ccccc1)P(=O)(Oc1ccccc1)Oc1ccccc1 (centres unmarked) [Compound 3, diphenyl 1-(1-(3-methyl-2-(5-(2-oxohexahydro-1H-thieno[3,4-d]imidazol-4-yl)pentanamido)butanoyl)pyrrolidine-2-carboxamido)-2-phenylethylphosphonate] | 11.6 ± 0.2 nM | 1.0*10^5 M^-1S^-1 |  |  |  |  |  |  |  | > 5 µM | 258 ± 33 nM | 4.5*10^3 M^-1S^-1 | > 5000 nM | > 5000 nM | 5.6*10^4 M^-1S^-1 |
| CSc1ccc(OP(=O)(Oc2ccc(SC)cc2)C(C)NC(=O)C2CCCN2C(=O)C(NC(=O)CCCCC2SCC3NC(=O)NC32)C(C)C)cc1 (centres unmarked) [Compound 4, bis(4-(methylthio)phenyl) 1-(1-(3-methyl-2-(5-(2-oxohexahydro-1H-thieno[3,4-d]imidazol-4-yl)pentanamido)butanoyl)pyrrolidine-2-carboxamido)ethylphosphonate] | 40.2 ± 0.01 nM | 2.9*10^4 M^-1S^-1 |  |  | > 5000 nM | 136 ± 7.5 nM | 8.5*10^3 M^-1S^-1 | 5.55 ± 0.25 nM | 2.1*10^5 M^-1S^-1 | > 5 µM |  |  |  |  |  |
| COc1ccc(OP(=O)(Oc2ccc(OC)cc2)C(CC(C)C)NC(=O)C2CCCN2C(=O)C(NC(=O)CCCCC2SCC3NC(=O)NC32)C(C)C)cc1 (centres unmarked) [Compound 5, bis(4-methoxyphenyl) (3-methyl-1-(1-(3-methyl-2-(5-(2-oxohexahydro-1H-thieno[3,4-d]imidazol-4-yl)pentanamido)butanoyl)pyrrolidine-2-carboxamido)butyl)phosphonate] | 47.9 ± 0.57 nM | 2.4*10^4 M^-1S^-1 |  |  | > 5000 nM | 5000 nM | 2*10^2 M^-1S^-1 |  |  | > 5 µM |  |  |  | > 5000 nM | 7.4*10^3 M^-1S^-1 |
| CC(C)C(NC(=O)CCC(=O)NCCCCCNC(=O)CCCCC1SCC2NC(=O)NC21)C(=O)N1CCCC1C(=O)NC(Cc1ccccc1)P(=O)(Oc1ccccc1)Oc1ccccc1 (centres unmarked) [Compound 10, diphenyl (1-(1-(3-methyl-2-(4-oxo-4-((5-(5-(2-oxohexahydro-1H-thieno[3,4-d]imidazol-4-yl)pentanamido)pentyl)amino)butanamido)butanoyl)pyrrolidine-2-carboxamido)-2-phenylethyl)phosphonate] | 39.9 ± 4.6 nM | 2.9*10^4 M^-1S^-1 |  |  |  |  |  |  |  | > 5 µM | 300 ± 0.5 nM | 3.8*10^3 M^-1S^-1 | > 5000 nM | > 5000 nM | 7.0*10^4 M^-1S^-1 |
